Read-outs that look alike come from different tables or passages of the source.
Assays:
Experiment in all cases: biochemical
Type in all cases: binding
[1] = molecular target: panel of 468 diverse kinases (Homo sapiens, UniProt Q9H422); settings: HIPK3; 1000 nM; read-out: Percent Control
[2] = molecular target: panel of 468 diverse kinases (Homo sapiens, UniProt P54764); settings: EPHA4; 1000 nM; read-out: Percent Control
[3] = molecular target: panel of 468 diverse kinases (Homo sapiens, UniProt P78368); settings: CSNK1G2; 1000 nM; read-out: Percent Control
[4] = molecular target: panel of 468 diverse kinases (Homo sapiens, UniProt P08581, M1250T); settings: MET(M1250T); 1000 nM; read-out: Percent Control
Sequence of panel of 468 diverse kinases (Homo sapiens, UniProt P08581, M1250T) (P08581 25-1390 M1250T limits assumed): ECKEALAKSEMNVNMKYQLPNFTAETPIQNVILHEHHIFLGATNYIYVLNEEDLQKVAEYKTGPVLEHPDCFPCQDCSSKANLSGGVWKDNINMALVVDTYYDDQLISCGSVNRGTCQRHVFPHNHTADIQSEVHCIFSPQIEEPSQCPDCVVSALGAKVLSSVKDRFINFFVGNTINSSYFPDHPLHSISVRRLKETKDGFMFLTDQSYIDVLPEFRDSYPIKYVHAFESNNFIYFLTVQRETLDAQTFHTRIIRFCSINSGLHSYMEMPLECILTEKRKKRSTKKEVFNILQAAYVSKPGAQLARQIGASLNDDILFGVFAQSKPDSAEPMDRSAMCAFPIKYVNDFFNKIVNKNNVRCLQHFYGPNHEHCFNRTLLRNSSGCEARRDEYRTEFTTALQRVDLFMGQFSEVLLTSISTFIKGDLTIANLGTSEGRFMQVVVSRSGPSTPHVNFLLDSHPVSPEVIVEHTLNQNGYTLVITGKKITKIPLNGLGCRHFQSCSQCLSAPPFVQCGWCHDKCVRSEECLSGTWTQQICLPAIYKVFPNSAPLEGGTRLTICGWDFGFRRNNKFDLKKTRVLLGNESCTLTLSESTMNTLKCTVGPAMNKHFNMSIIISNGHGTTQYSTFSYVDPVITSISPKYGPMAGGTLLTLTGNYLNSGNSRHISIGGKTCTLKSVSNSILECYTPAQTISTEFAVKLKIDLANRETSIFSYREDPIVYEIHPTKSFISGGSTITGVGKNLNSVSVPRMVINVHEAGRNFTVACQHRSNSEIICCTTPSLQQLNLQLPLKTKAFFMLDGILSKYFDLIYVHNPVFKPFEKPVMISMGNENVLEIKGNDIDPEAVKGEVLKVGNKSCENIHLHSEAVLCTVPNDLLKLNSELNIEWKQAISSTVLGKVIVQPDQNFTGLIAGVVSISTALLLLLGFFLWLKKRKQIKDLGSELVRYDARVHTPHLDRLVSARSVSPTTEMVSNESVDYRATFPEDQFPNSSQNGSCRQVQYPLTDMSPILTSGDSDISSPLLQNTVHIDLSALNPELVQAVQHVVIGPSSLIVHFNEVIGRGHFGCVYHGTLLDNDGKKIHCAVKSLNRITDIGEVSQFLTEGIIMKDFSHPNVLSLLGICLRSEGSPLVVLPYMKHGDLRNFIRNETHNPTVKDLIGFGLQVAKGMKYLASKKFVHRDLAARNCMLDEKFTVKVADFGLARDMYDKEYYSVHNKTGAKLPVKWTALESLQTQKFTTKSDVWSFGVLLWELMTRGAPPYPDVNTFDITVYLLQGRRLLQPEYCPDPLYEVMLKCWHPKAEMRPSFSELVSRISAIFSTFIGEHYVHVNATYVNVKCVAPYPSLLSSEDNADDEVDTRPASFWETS

[5] = molecular target: panel of 468 diverse kinases (Homo sapiens, UniProt P49336); settings: CDK8; 1000 nM; read-out: Percent Control
[6] = molecular target: panel of 468 diverse kinases (Homo sapiens, UniProt Q9Y6M4); settings: CSNK1G3; 1000 nM; read-out: Percent Control
[7] = molecular target: panel of 468 diverse kinases (Homo sapiens, UniProt O15530); settings: PDPK1; 1000 nM; read-out: Percent Control
[8] = molecular target: panel of 468 diverse kinases (Homo sapiens, UniProt P45984); settings: JNK2; 1000 nM; read-out: Percent Control
[9] = molecular target: panel of 468 diverse kinases (Homo sapiens, UniProt Q96BR1); settings: SGK3; 1000 nM; read-out: Percent Control
[10] = molecular target: panel of 468 diverse kinases (Homo sapiens, UniProt P33981); settings: TTK; 1000 nM; read-out: Percent Control
[11] = molecular target: panel of 468 diverse kinases (Homo sapiens, UniProt Q04759); settings: PRKCQ; 1000 nM; read-out: Percent Control
[12] = molecular target: panel of 468 diverse kinases (Homo sapiens, UniProt Q96SB4); settings: SRPK1; 1000 nM; read-out: Percent Control
[13] = molecular target: panel of 468 diverse kinases (Homo sapiens, UniProt P36888); settings: 1000 nM, read-out: Percent Control
[14] = molecular target: panel of 468 diverse kinases (Homo sapiens, UniProt Q92772); settings: CDKL2; 1000 nM; read-out: Percent Control
[15] = molecular target: panel of 468 diverse kinases (Homo sapiens, UniProt P00533, G719C); settings: EGFR(G719C); 1000 nM; read-out: Percent Control
Sequence of panel of 468 diverse kinases (Homo sapiens, UniProt P00533, G719C) (P00533 25-1210 G719C limits assumed): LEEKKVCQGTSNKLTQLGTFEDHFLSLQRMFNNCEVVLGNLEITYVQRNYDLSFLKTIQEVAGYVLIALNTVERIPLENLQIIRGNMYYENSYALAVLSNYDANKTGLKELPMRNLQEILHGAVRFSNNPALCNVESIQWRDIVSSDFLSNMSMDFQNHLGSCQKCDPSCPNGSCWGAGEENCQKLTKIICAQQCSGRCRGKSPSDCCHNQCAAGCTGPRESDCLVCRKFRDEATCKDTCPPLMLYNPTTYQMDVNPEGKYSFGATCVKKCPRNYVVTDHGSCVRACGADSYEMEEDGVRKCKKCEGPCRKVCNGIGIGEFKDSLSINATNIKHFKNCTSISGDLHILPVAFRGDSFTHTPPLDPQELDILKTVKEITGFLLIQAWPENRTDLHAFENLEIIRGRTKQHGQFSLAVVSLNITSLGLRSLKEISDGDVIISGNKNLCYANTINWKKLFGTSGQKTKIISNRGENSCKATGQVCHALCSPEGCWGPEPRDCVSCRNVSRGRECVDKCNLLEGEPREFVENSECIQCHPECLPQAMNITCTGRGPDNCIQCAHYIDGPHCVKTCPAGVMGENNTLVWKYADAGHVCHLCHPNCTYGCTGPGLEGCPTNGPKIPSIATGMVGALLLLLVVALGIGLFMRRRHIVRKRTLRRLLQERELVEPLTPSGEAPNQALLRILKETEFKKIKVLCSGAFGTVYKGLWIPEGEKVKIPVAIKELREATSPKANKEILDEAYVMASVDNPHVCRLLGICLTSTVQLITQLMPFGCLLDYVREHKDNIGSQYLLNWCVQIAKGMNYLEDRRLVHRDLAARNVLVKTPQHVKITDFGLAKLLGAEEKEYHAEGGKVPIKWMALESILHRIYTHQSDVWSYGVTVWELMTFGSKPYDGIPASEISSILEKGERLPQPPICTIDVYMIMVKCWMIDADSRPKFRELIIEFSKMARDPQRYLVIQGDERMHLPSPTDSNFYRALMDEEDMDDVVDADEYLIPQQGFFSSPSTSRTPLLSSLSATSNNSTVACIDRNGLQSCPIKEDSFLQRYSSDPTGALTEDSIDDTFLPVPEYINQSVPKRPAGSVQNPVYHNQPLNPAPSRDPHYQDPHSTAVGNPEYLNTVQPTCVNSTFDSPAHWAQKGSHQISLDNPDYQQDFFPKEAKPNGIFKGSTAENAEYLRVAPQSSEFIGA

[16] = molecular target: panel of 468 diverse kinases (Homo sapiens, UniProt Q8IY84); settings: NIM1; 1000 nM; read-out: Percent Control
[17] = molecular target: panel of 468 diverse kinases (Homo sapiens, UniProt Q9P289); settings: MST4; 1000 nM; read-out: Percent Control
Sequence of panel of 468 diverse kinases (Homo sapiens, UniProt Q9P289) (Q9P289 2-416 limits assumed): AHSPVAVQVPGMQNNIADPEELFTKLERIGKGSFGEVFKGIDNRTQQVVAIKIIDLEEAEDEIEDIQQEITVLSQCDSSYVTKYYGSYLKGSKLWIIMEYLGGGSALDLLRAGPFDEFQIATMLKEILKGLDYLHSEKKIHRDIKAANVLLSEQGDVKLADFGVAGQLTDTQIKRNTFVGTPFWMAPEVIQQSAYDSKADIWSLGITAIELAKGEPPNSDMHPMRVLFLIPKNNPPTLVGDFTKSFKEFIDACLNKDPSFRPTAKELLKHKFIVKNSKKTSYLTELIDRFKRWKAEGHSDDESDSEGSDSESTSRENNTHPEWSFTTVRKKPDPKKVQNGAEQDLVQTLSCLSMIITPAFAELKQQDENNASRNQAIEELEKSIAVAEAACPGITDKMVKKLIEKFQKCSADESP

[18] = molecular target: panel of 468 diverse kinases (Homo sapiens, UniProt Q15303); settings: ERBB4; 1000 nM; read-out: Percent Control
[19] = molecular target: panel of 468 diverse kinases (Homo sapiens, UniProt Q96GD4); settings: AURKB; 1000 nM; read-out: Percent Control
[20] = molecular target: panel of 468 diverse kinases (Homo sapiens, UniProt Q6P2M8); settings: CAMK1B; 1000 nM; read-out: Percent Control
[21] = molecular target: panel of 468 diverse kinases (Homo sapiens, UniProt P00533, L861Q); settings: EGFR(L861Q); 1000 nM; read-out: Percent Control
[22] = molecular target: panel of 468 diverse kinases (Homo sapiens, UniProt P20794); settings: MAK; 1000 nM; read-out: Percent Control
[23] = molecular target: panel of 468 diverse kinases (Homo sapiens, UniProt Q8TBX8); settings: PIP5K2C; 1000 nM; read-out: Percent Control
[24] = molecular target: panel of 468 diverse kinases (Homo sapiens, UniProt P07333); settings: 1000 nM, read-out: Percent Control
Sequence of panel of 468 diverse kinases (Homo sapiens, UniProt P07333) (P07333 20-972 limits assumed): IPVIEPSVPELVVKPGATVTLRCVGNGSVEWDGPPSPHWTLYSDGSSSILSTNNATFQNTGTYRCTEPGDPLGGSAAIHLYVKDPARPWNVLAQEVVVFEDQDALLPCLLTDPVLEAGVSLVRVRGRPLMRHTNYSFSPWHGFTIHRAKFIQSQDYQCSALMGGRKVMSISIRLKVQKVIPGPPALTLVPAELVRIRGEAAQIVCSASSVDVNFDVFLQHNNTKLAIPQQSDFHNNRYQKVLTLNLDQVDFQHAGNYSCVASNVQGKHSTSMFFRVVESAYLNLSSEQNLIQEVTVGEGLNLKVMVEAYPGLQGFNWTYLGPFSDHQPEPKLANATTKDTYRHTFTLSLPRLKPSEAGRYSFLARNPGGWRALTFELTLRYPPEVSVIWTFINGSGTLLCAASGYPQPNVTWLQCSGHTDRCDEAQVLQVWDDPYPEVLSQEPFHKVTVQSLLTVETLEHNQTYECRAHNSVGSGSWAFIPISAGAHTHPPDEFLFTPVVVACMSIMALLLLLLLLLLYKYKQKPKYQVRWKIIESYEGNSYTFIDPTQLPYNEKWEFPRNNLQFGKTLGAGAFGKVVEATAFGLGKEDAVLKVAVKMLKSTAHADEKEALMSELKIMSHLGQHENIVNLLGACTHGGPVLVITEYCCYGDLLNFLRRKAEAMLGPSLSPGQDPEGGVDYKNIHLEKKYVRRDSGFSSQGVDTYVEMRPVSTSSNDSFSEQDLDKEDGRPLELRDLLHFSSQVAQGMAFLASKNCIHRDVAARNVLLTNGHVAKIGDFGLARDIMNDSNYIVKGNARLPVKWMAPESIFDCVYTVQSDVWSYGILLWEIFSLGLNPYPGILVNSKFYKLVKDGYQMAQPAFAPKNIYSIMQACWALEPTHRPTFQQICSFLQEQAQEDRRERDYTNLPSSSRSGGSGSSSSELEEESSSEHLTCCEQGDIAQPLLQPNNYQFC

[25] = molecular target: panel of 468 diverse kinases (Homo sapiens, UniProt Q14004); settings: read-out: Percent Control
[26] = molecular target: panel of 468 diverse kinases (Homo sapiens, UniProt Q13164); settings: ERK5; 1000 nM; read-out: Percent Control
Sequence of panel of 468 diverse kinases (Homo sapiens, UniProt Q13164) (Q13164 2-816 limits assumed): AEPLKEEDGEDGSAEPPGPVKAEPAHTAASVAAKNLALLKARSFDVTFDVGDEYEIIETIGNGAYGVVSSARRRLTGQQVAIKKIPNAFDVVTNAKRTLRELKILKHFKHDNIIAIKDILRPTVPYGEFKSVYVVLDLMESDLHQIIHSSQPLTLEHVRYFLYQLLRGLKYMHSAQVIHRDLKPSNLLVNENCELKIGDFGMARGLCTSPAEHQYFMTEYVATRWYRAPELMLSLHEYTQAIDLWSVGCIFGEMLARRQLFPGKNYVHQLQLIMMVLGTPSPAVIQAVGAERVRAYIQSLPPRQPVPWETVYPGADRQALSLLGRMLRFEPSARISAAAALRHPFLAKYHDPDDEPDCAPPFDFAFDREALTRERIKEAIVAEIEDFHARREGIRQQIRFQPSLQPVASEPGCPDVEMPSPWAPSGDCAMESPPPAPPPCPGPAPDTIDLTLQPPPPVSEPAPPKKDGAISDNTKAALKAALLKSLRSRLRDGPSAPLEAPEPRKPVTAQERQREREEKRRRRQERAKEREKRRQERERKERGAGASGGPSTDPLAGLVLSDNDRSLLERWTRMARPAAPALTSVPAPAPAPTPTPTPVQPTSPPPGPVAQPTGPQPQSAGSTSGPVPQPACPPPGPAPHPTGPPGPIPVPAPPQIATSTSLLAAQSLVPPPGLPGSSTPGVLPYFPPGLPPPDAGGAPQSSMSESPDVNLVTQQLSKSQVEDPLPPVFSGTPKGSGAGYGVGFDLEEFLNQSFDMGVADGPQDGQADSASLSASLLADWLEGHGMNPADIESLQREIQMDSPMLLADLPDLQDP

[27] = molecular target: panel of 468 diverse kinases (Homo sapiens, UniProt Q16288); settings: TRKC; 1000 nM; read-out: Percent Control
[28] = molecular target: panel of 468 diverse kinases (Homo sapiens, UniProt Q9UF33); settings: EPHA6; 1000 nM; read-out: Percent Control
[29] = molecular target: panel of 468 diverse kinases (Homo sapiens, UniProt Q9UM73, C1156Y); settings: ALK(C1156Y); 1000 nM; read-out: Percent Control
[30] = molecular target: panel of 468 diverse kinases (Homo sapiens, UniProt P36888, D835Y); settings: FLT3(D835Y); 1000 nM; read-out: Percent Control
[31] = molecular target: panel of 468 diverse kinases (Homo sapiens, UniProt Q9H4A3); settings: WNK1; 1000 nM; read-out: Percent Control

COc1cc2nc(NC3CC3)nc(NC3CCN(C(C)C)CC3)c2cc1OC [Formula IV]
remaining activity at 1 µM [1]: 61%
remaining activity at 1 µM [2]: 100%
remaining activity at 1 µM [3]: 86%
remaining activity at 1 µM [4]: 88%
remaining activity at 1 µM [5]: 96%
remaining activity at 1 µM [6]: 100%
remaining activity at 1 µM [7]: 97%
remaining activity at 1 µM [8]: 45%
remaining activity at 1 µM [9]: 60%
remaining activity at 1 µM [10]: 85%
remaining activity at 1 µM [11]: 86%
remaining activity at 1 µM [12]: 97%
remaining activity at 1 µM ([13]; FLT3-autoinhibited): 51%
remaining activity at 1 µM ([13]; FLT3): 100%
remaining activity at 1 µM [14]: 100%
remaining activity at 1 µM [15]: 91%
remaining activity at 1 µM [16]: 72%
remaining activity at 1 µM [17]: 82%
remaining activity at 1 µM [18]: 96%
remaining activity at 1 µM [19]: 84%
remaining activity at 1 µM [20]: 59%
remaining activity at 1 µM [21]: 75%
remaining activity at 1 µM [22]: 88%
remaining activity at 1 µM [23]: 80%
remaining activity at 1 µM ([24]; CSF1R-autoinhibited): 54%
remaining activity at 1 µM ([24]; CSF1R): 91%
remaining activity at 1 µM [25]: 55%
remaining activity at 1 µM [26]: 86%
remaining activity at 1 µM [27]: 53%
remaining activity at 1 µM [28]: 100%
remaining activity at 1 µM [29]: 92%
remaining activity at 1 µM [30]: 88%
remaining activity at 1 µM [31]: 59%
